# Tests used:
# [1] = tested on: TNFα; assay: TNFα expression in differentiated 3T3-L1 adipocytes; type: cell-based, mouse; settings: 10 nmol/L, 48 h
# Method: 3T3-L1 pre-adipocytes were incubated at a density of 8000 cells/cm^2 (10 cm^2 dish) and grown in Dulbecco's modified Eagle's medium (DMEM) containing 10% FBS and antibiotics (adipocyte medium) at 37° C. in 5% CO2 in air. Confluent pre-adipocytes were induced to differentiate with a standard differentiation medium consisting of DMEM-F10 (1:1, vol/vol) medium supplemented with 1% fetal bovine serum (FBS), 1 μM dexamethasone, isobutylmethylxanthine (IBMX) (0.5 mM) and antibiotics (1% Penicillin-Streptomycin). Pre-adipocytes were maintained in this differentiation medium for 3 days and subsequently cultured in adipocyte medium. Cultures were re-fed every 2-3 days to allow 90% cells to reach fully differentiation before conducting chemical treatment. […] Cell viability was measured via trypan blue exclusion. Adipocyte and muscle 18s, TNFα, IL-6, IL-8, IL-15 and adiponectin were quantitatively measured using a smart cycler real-time PCR system (Cepheid, Sunnyvale, Calif.) with a TaqMan 1000 Core Reagent Kit (Applied Biosystems, Branchburg, N.J.). […] Reactions of quantitative RT-PCR for standards and unknown samples were also performed according to the instructions of Smart Cycler System (Cepheid, Sunnyvale, Calif.) and TaqMan Real Time PCR Core Kit (Applied Biosystems, Branchburg, N.J.). The mRNA quantitation for each sample was further normalized using the corresponding 18s quantitation.
# [2] = tested on: MIF; assay: MIF expression in human adipocytes; type: cell-based; settings: calcitriol 10 nmol/L, 48 hours; p=0.001
# Excerpt: Cell culture: Human preadipocytes used in this study were supplied by Zen-Bio (Research Triangle, N.C.). Preadipocytes were inoculated in DMEM/Ham's F-10 medium (DMEM-F10) (1:1, vol/vol) containing 10% FBS, 15 mmol/L HEPES, and antibiotics at a density of 30,000 cells/cm^2. Confluent monolayers of preadipocytes were induced to differentiate with a standard differentiation medium consisting of DMEM-F 10 (1:1, vol/vol) medium supplemented with 15 mmol/L HEPES, 3% FBS, 33 μmol/L biotin, 17 μmol/L pantothenate, 100 nmol/L insulin, […] methylisobutylxanthine, 1 μmol/L dexamethasone, 1 μmol/L BRL49653, and antibiotics. […]
# Cells were washed with fresh adipocyte medium, re-fed with medium containing the indicated treatments, and incubated at 37° C. in 5% CO2 for 48 hours before analysis. Cell viability was measured via trypan blue exclusion.
# Adipocyte and muscle 18s, CD14, TNFα, MIP, M-CSF, IL-6 and MCP-1 were quantitatively measured using a Smart Cycler Real Time PCR System (Cepheid, Sunnyvale, Calif.) with a TaqMan 1000 Core Reagent Kit (Applied Biosystems, Branchburg, N.J.). […] Reactions of quantitative RT-PCR for standards and unknown samples were also performed according to the instructions of Smart Cycler System (Cepheid, Sunnyvale, Calif.) and TaqMan Real Time PCR Core Kit (Applied Biosystems, Branchburg, N.J.). […]
# [3] = tested on: 3T3-L1 adipocytes; assay: Mouse cytokine antibody array of culture medium; type: cell-based
# Method: RAW 264 macrophages and 3T3-L1 preadipocytes (American Type Culture Collection) were incubated at a density of 8000 cells/cm2 (10 cm2 dish) and grown in Dulbecco's modified Eagle's medium (DMEM) containing 10% FBS and antibiotics (adipocyte medium) at 37° C. in 5% CO2 in air. Confluent 3T3-L1 preadipocytes were induced to differentiate with a standard differentiation medium consisting of DMEM-F10 (1:1, vol/vol) medium supplemented with 1% FBS, 1 μM dexamethasone, IBMX (0.5 mM) and antibiotics (1% Penicillin-Streptomycin). Preadipocytes were maintained in this differentiation medium for 3 days and subsequently cultured in adipocyte medium. Cultures were re-fed every 2-3 days to allow 90% cells to reach fully differentiation for 3T3-L1 adipocytes or grow to a confluence for RAW 264 before conducting chemical treatment.
# Human adipocytes (Zen-Bio, Inc.), 3T3-L1 adipocytes, RAW264 macrophages were obtained and co-cultured by using transwell inserts with 0.4 μm porous membranes (Corning) to separate adipocytes and macrophages. All data are expressed as mean±SEM. Data were evaluated for statistical significance by analysis of one-way or two-way variance (ANOVA; means with different letter differ, p<0.05).
# A TansSignal™ mouse cytokine antibody array kit (Panomics, Fremont, Calif.) was used to detect cytokine protein released in culture medium according to the manufacture's instruction. […]
smiles,measurement,setting,value
"C=C1/C(=C\C=C2/CCC[C@]3(C)[C@@H]([C@H](C)CCCC(C)(C)O)CC[C@@H]23)C[C@@H](O)C[C@@H]1O [calcitriol, 1, 25-Dihydroxyvitamin D]",stimulation of TNFα expression,[1],135%
same,increase of MIF expression,[2],59%
same,effect on inflammatory cytokine production,[3]; co-culture of 3T3-L1 adipocytes with RAW264 macrophages,further stimulated inflammatory cytokine production
same,effect on release of inflammatory cytokine proteins,[3]; differentiated 3T3-L1 adipocytes cultured alone,up-regulated production of multiple inflammatory cytokine proteins

# Source: patent US20070092577A1, “Dietary calcium for reducing the production of reactive oxygen species” (University of Tennessee Research Foundation, priority 2005, published 2007)
